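Five compound concentrations were applied to cells in 96-well plates for 48 hours; endpoints were derived by simple linear interpolation of the resulting dose-response curve. Abbreviation: GI50, concentration required for 50% inhibition of growth.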 Active and inactive are the calls of the source. No stated cut-off is given here; in the data, active = GI50 up to about 1.1 µM and inactive = higher.
Columns and labels:
Experiment in all cases: NCI tumour cell line growth inhibition, 48 h
NCI-H522 = tested on: NCI-H522
NCI/ADR-RES = tested on: NCI/ADR-RES
SF-295 = tested on: SF-295
RXF 393 = tested on: RXF 393
SF-539 = tested on: SF-539
A549 = tested on: A549
HCT-15 = tested on: HCT-15
DU-145 = tested on: DU-145
A498 = tested on: A498
HCT-116 = tested on: HCT-116
HOP-92 = tested on: HOP-92
MDA-MB-231 = tested on: MDA-MB-231
CCRF-CEM = tested on: CCRF-CEM
EKVX = tested on: EKVX
SK-MEL-2 = tested on: SK-MEL-2
TK-10 = tested on: TK-10
HT-29 = tested on: HT-29
OVCAR-8 = tested on: OVCAR-8
NCI-H23 = tested on: NCI-H23

| Structure (SMILES) | GI50 (NCI-H522) | GI50 (NCI/ADR-RES) | GI50 (SF-295) | GI50 (RXF 393) | GI50 (SF-539) | GI50 (A549) | GI50 (HCT-15) [µM] | GI50 (DU-145) | GI50 (A498) | GI50 (HCT-116) | GI50 (HOP-92) | GI50 (MDA-MB-231) | GI50 (CCRF-CEM) | GI50 (EKVX) | GI50 (SK-MEL-2) | GI50 (TK-10) | GI50 (HT-29) | GI50 (OVCAR-8) | GI50 (NCI-H23) |
| --- | --- | --- | --- | --- | --- | --- | --- | --- | --- | --- | --- | --- | --- | --- | --- | --- | --- | --- | --- |
| Cc1cc(Cl)ccc1OCC(=O)Nc1nc(N)nc(N)n1 | > 100 µM (inactive) | > 100 µM (inactive) | > 100 µM (inactive) | > 100 µM (inactive) | > 100 µM (inactive) | > 100 µM (inactive) | > 100 | > 100 µM (inactive) | > 100 µM (inactive) | > 100 µM (inactive) | > 100 µM (inactive) | > 100 µM (inactive) | > 100 µM (inactive) | > 100 µM (inactive) | > 100 µM (inactive) | > 100 µM (inactive) | > 100 µM (inactive) | > 100 µM (inactive) | > 100 µM (inactive) |
| CCSc1nnc(Sc2c3ccccc3nc3ccccc23)s1 | 2.37 µM (inactive) | 19.7 µM (inactive) | 99.3 µM (inactive) | 17.2 µM (inactive) | 7.94 µM (inactive) | > 60.7 µM (inactive) | 3.37 | 15.2 µM (inactive) | 23.8 µM (inactive) | 7.41 µM (inactive) | 11.7 µM (inactive) | 18.8 µM (inactive) | 2.64 µM (inactive) | 11.6 µM (inactive) | 22.3 µM (inactive) | 6.18 µM (inactive) | 7.67 µM (inactive) | 20.3 µM (inactive) | 20.2 µM (inactive) |
| N#Cc1cccc(Nc2ccccc2SSc2ccccc2Nc2cccc(C#N)c2)c1 | 8.11 µM (inactive) | 8.79 µM (inactive) | 13.2 µM (inactive) | > 10 µM (inactive) | 8.79 µM (inactive) | 11.3 µM (inactive) | 10.4 | 19 µM (inactive) | 9.89 µM (inactive) | 9.06 µM (inactive) | 7.89 µM (inactive) | 12.2 µM (inactive) | 2.94 µM (inactive) | 13.9 µM (inactive) | > 10 µM (inactive) | 19.3 µM (inactive) | 11.4 µM (inactive) | 8.11 µM (inactive) | 11.7 µM (inactive) |
| c1cc(-c2cnc(-c3ccc4c(c3)CCCO4)o2)ccn1 | 10 µM (inactive) | 17.1 µM (inactive) | 20 µM (inactive) | 13.5 µM (inactive) | 9.1 µM (inactive) | 16.2 µM (inactive) | 16.2 | 11.3 µM (inactive) | 12.3 µM (inactive) | 16.7 µM (inactive) | 22.9 µM (inactive) | 16.2 µM (inactive) | 5.98 µM (inactive) | 17.7 µM (inactive) | 11.9 µM (inactive) | 12.7 µM (inactive) | 16.8 µM (inactive) | 13.8 µM (inactive) | 15.5 µM (inactive) |
| CCOC(=O)C(C(=O)OCC)C1C=CCC2c3ccccc3COCC21 (centres undefined) | 24.5 µM (inactive) | 28.2 µM (inactive) | 43.6 µM (inactive) | > 100 µM (inactive) | > 100 µM (inactive) | 66.5 µM (inactive) | 40 | > 100 µM (inactive) | 38.7 µM (inactive) | 41.1 µM (inactive) | > 100 µM (inactive) | > 100 µM (inactive) | 36.1 µM (inactive) | 40.5 µM (inactive) | 41.4 µM (inactive) | 98.2 µM (inactive) | 54.7 µM (inactive) | 44.2 µM (inactive) | 43.6 µM (inactive) |
| COc1cc2c(cc1OC)C(=O)N(c1ccc(OCCN3CCCC3)cc1)C2=O | > 100 µM (inactive) | > 100 µM (inactive) | > 100 µM (inactive) | > 100 µM (inactive) | > 100 µM (inactive) | > 100 µM (inactive) | > 100 | > 100 µM (inactive) | > 100 µM (inactive) | > 100 µM (inactive) | > 100 µM (inactive) | > 100 µM (inactive) | > 100 µM (inactive) | > 100 µM (inactive) | > 100 µM (inactive) | > 100 µM (inactive) | > 100 µM (inactive) | > 100 µM (inactive) | > 100 µM (inactive) |
| COc1cc2c(/C=C3/C(=O)Nc4ccc(Cl)cc43)c(Cl)n(Cc3ccccc3)c2cc1C | 3.18 µM (inactive) | 3.86 µM (inactive) | 2.81 µM (inactive) | 2.31 µM (inactive) | 2.94 µM (inactive) | 3.27 µM (inactive) | 4.01 | 3.9 µM (inactive) | 2.65 µM (inactive) | 3.81 µM (inactive) | 5.51 µM (inactive) | 2.48 µM (inactive) | 2.89 µM (inactive) |  | 6.21 µM (inactive) | 1.8 µM (inactive) | 8.26 µM (inactive) | 2.59 µM (inactive) | 2.84 µM (inactive) |
| O=C(NO)NCCCl | > 100 µM (inactive) | > 100 µM (inactive) | > 100 µM (inactive) | > 100 µM (inactive) | > 100 µM (inactive) | > 100 µM (inactive) | > 100 | > 100 µM (inactive) | 49.5 µM (inactive) | > 100 µM (inactive) | > 100 µM (inactive) | > 100 µM (inactive) | > 100 µM (inactive) | > 100 µM (inactive) | > 100 µM (inactive) | > 100 µM (inactive) | > 100 µM (inactive) | > 100 µM (inactive) | > 100 µM (inactive) |
| C=C1CC2(CC(c3ccccc3Cl)OC(c3ccccc3Cl)C2)OC1=O (centres undefined) | 1.72 µM (inactive) | 3.57 µM (inactive) | 8.97 µM (inactive) | 2.12 µM (inactive) | 1.96 µM (inactive) | 7.74 µM (inactive) | 2.56 | 6.87 µM (inactive) | 9.73 µM (inactive) | 1.76 µM (inactive) | 1.87 µM (inactive) | 1.85 µM (inactive) | 1.96 µM (inactive) | 8.34 µM (inactive) | 3.43 µM (inactive) | 4.33 µM (inactive) | 2.55 µM (inactive) | 2.11 µM (inactive) | 3.83 µM (inactive) |
| O=C1c2ccccc2C(=O)c2c1nc1ccccc1c2-c1cncc(-c2c3c(nc4ccccc24)C(=O)c2ccccc2C3=O)c1 | 1.95 µM (inactive) | 4.13 µM (inactive) | 8.32 µM (inactive) | 12.1 µM (inactive) | 6.46 µM (inactive) | 3.29 µM (inactive) | 1.24 | 4.09 µM (inactive) | 9.18 µM (inactive) | 4.17 µM (inactive) | 4.32 µM (inactive) | 9.31 µM (inactive) | 0.562 µM (active) | 3.85 µM (inactive) | 8.45 µM (inactive) | 37.3 µM (inactive) | 8.49 µM (inactive) | 1.52 µM (inactive) | 1.18 µM (inactive) |
| COc1cc(OC)cc(C(=O)NC2=C(Cl)C(=O)c3ccccc3C2=O)c1 | 0.728 µM (active) | 2.28 µM (inactive) | 2.92 µM (inactive) | 1.04 µM (active) | 4.45 µM (inactive) | 4.34 µM (inactive) | 0.94 | 4.58 µM (inactive) | 14.1 µM (inactive) | 0.668 µM (active) | 1.45 µM (inactive) | 4.08 µM (inactive) | 0.355 µM (active) | 9.75 µM (inactive) | 1.65 µM (inactive) | 2.81 µM (inactive) | 4.67 µM (inactive) | 3.1 µM (inactive) | 2.43 µM (inactive) |
| O=P(O)(O)CN1CCNCCN(CP(=O)(O)O)CC1 | 19.9 µM (inactive) | > 19.9 µM (inactive) | 41.5 µM (inactive) | 28.8 µM (inactive) | > 22.1 µM (inactive) | 15.2 µM (inactive) | 8.89 | > 100 µM (inactive) | 33.7 µM (inactive) | 8.93 µM (inactive) | > 34 µM (inactive) | 36 µM (inactive) | 23.6 µM (inactive) | > 80.2 µM (inactive) | 46 µM (inactive) | > 49.4 µM (inactive) | 4.26 µM (inactive) | 28.4 µM (inactive) | 54.6 µM (inactive) |
| Cc1ccc(S(=O)(=O)[C@@H](Cl)[C@H]2N=C(Cl)NN=C2c2ccccc2)cc1 | 15.9 µM (inactive) | 21.4 µM (inactive) | 41.4 µM (inactive) | 18.6 µM (inactive) | 30.1 µM (inactive) | 34.1 µM (inactive) | 22.2 | 23.2 µM (inactive) | 15.5 µM (inactive) | 25.1 µM (inactive) | 23 µM (inactive) | 20.1 µM (inactive) | 20.3 µM (inactive) | 37.1 µM (inactive) | 14.8 µM (inactive) | 41.8 µM (inactive) | 33.5 µM (inactive) | 21.1 µM (inactive) | 20.6 µM (inactive) |
| CCCCCCCCCCCCc1ccsc1-c1ccc(-c2ccc(-c3sc(-c4cc(CCCCCCCCCCCC)c(-c5ccc(-c6ccc(-c7sccc7CCCCCCCCCCCC)s6)s5)s4)cc3CCCCCCCCCCCC)s2)s1 | > 100 µM (inactive) | > 100 µM (inactive) | > 100 µM (inactive) | 83.4 µM (inactive) | > 100 µM (inactive) | > 100 µM (inactive) | > 100 | > 100 µM (inactive) | > 100 µM (inactive) | > 100 µM (inactive) | > 100 µM (inactive) | > 100 µM (inactive) | 38.3 µM (inactive) | > 100 µM (inactive) | > 100 µM (inactive) | > 100 µM (inactive) | > 100 µM (inactive) | > 100 µM (inactive) | > 100 µM (inactive) |
| C=CC(C1=CC(=O)C(OC)=CC1=O)c1ccccc1 (centres undefined) [4-METHOXYDALBERGIONE] | 6.93 µM (inactive) | 18.5 µM (inactive) | 12.2 µM (inactive) | 15.6 µM (inactive) | 14.2 µM (inactive) | 25.4 µM (inactive) | 14.3 | 16.5 µM (inactive) | > 51.2 µM (inactive) | 8.81 µM (inactive) | 4.98 µM (inactive) | 6.97 µM (inactive) | 1.91 µM (inactive) | 16.1 µM (inactive) | 12.6 µM (inactive) | 18.1 µM (inactive) | 19.3 µM (inactive) | 20.5 µM (inactive) | 16.1 µM (inactive) |
